What was measured:
GAT-1 [1] = biological target: T1, GAT-1 (Macaca mulatta, UniProt H9ELS5); assay: PET brain imaging with kinetic modeling (1TCM), baseline and tiagabine blocking scans; format: in vivo, rhesus monkeys (Macaca mulatta); conditions: for Median VT across ROIs: 1TCM
T1 construct: from tissue; host or cells: brain of living rhesus monkeys (in vivo PET)
Experimental: Twenty scans were acquired from 4 rhesus monkeys (Macaca mulatta). Each monkey underwent baseline and blocking scans with ^18F-GATT-31, ^18F-GATT-34, ^18F-GATT-39, or ^18F-GATT-44 (Fig. 1) on a Focus-220 small-animal PET scanner (Siemens Healthineers).
(§1) Before each scan, each monkey was sedated with alfaxalone (2 mg/kg), midazolam (0.3 mg/kg), and dexmedetomidine (0.01 mg/kg), and anesthesia was maintained with 1.5%–2.5% isoflurane. Heart rate, blood pressure, respiration rate, and oxygen saturation were monitored continuously. An intravenous line was placed in the saphenous or cephalic vein for delivery of the radiotracer, as well as tiagabine during blocking studies (0.5 mg/kg administered 19 ± 4 min before radiotracer injections). A catheter was placed in the radial or tibial artery for blood sampling.
Before injection, a transmission scan was acquired. Starting with injection of the radiotracer, PET emission data were acquired in list-mode format and binned into 45 frames (6 × 30 s, 3 × 1 min, 2 × 2 min, and 34 × 5 min).
For region-of-interest (ROI) definition, each PET image was registered to an in-house rhesus monkey anatomical MRI template using the concatenation of a rigid-body transformation between the summed PET image (0–10 min) and corresponding monkey’s MRI (using the FMRIB Linear Image Registration Tool) and a nonlinear transformation matrix estimated between the monkey’s MRI and the MRI template (BioImage Suite software version 3.01). Regional time–activity curves were extracted for the following 11 ROIs: brain stem, caudate, cerebellum, cingulate cortex, frontal cortex, hippocampus, insula, occipital cortex, putamen, temporal cortex, and thalamus.
For each baseline and blocking scan, kinetic analysis was performed using a 1-tissue compartment model (1TCM), a reversible 2-tissue compartment model (2TCM; k4 > 0), and an irreversible 2-tissue compartment model (2TiCM; k4 = 0), including a blood volume fraction (Vb) term and a time-delay term. Vb was estimated for each time–activity curve using the whole-blood curve fitted with a sum of exponentials. The time delay (Δt) between the input function and the brain was estimated by fitting the first 10 min of the whole-brain time–activity curve to a 1TCM with 3 parameters: K1, Vb, and Δt (k2 was set to 0 because of the negligible radiotracer washout during the first 10 min). This estimated time delay value was then used in the time–activity curve fits. The primary parameters of interest were the influx constant (K1, expressed in microliters per minute per cubic centimeter, since values were low), the volume of distribution (VT, expressed in milliliters per cubic centimeter), and the net influx constant (Ki, expressed in milliliters per minute per cubic centimeter) for 2TiCM.

[2] = Plasma free fraction (fp), ultrafiltration method; format: in vitro ADME, rhesus monkeys (Macaca mulatta); conditions: measured in triplicate per scan, mean ± SD
Experimental: The plasma free fraction (fp) for each scan was measured in triplicate using the ultrafiltration method and calculated as the ratio of radioactivity in the filtrate to that in the plasma ([24]).

GAT-1 [3] = biological target: T1, GAT-1; assay: Occupancy plots from baseline and tiagabine blocking PET scans (occupancy, VND, BPND); format: in vivo, rhesus monkeys (Macaca mulatta); set-up: key to BPND: BPND = VT/VND − 1 (dimensionless); conditions: for VND: occupancy plot; for Occupancy: tiagabine 0.5 mg/kg occupancy measured with this radiotracer
Experimental: as §1
Occupancy plots ([26]) were used to estimate tiagabine occupancy and the nondisplaceable volume of distribution (VND). This VND value was used to compute the nondisplaceable binding potential (BPND = VT/VND − 1). To compare the performance between 2 radiotracers, a Guo plot ([27]) was created, using baseline VT values, to assess the relative affinity and BPND values of each radiotracer.

GAT-1 [4] = biological target: T1, GAT-1; assay: Time stability of VT with shortened scan duration; format: in vivo, rhesus monkeys (Macaca mulatta); conditions: for Mean percent difference in VT on shortening scan from 180 to 120 min: baseline, 3 monkeys; for Mean percent difference in VT with respect to the 180-min value: blocking condition
Experimental: Finally, to assess the possibility of reducing scan duration, time stability was assessed for the most promising radiotracer by sequentially shortening the time–activity curves from 180 to 60 min and reestimating the kinetic parameters. Scan-time reduction was deemed possible if the VT values from these shortened time–activity curves were within 10% of those estimated with the full time–activity curves.

[5] = Metabolite analysis of arterial plasma (unmetabolized parent fraction), column-switching HPLC; format: in vivo, rhesus monkeys (Macaca mulatta); conditions: mean ± SD
Experimental: Arterial blood samples were collected for each scan to measure the input function. Metabolite analysis was performed using an automatic column-switching high-performance liquid chromatography system ([22]) for 7 arterial blood samples collected at 5, 15, 30, 60, 90, 120, and 180 min. The radiometabolite-corrected arterial plasma input function was obtained by calculating the product of the fitted total plasma (fitted with a sum of exponentials) and unmetabolized parent fraction curves (using an integrated γ-function ([23])).

T1 sequence (H9ELS5 1-599): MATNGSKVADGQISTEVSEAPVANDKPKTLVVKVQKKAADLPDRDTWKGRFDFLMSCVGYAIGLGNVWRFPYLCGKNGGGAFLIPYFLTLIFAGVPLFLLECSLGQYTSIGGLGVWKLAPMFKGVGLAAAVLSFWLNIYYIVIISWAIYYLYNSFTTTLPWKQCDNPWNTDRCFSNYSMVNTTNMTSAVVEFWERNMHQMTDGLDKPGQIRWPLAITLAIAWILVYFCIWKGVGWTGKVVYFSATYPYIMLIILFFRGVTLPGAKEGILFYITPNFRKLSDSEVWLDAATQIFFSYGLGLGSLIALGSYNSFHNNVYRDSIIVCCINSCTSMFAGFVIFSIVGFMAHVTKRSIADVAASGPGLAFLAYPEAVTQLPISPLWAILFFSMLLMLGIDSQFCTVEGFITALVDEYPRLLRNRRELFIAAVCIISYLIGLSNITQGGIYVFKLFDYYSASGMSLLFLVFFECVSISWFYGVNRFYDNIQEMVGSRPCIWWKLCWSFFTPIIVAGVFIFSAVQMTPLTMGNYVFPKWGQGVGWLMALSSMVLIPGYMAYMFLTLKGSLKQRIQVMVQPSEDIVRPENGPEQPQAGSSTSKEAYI

Median VT across ROIs (GAT-1 [1]; after blocking with tiagabine 0.5 mg/kg): 1.7 mL/cm^3
Median VT across ROIs (GAT-1 [1]; baseline): 3.5 mL/cm^3
VT (GAT-1 [1]; Average of ROIs, baseline, 3 monkeys, mean ± SD): 3.40 ± 0.52 mL/cm^3
VT (GAT-1 [1]; Average of ROIs, blocking (tiagabine 0.5 mg/kg), 3 monkeys, mean ± SD): 1.66 ± 0.11 mL/cm^3
VT (GAT-1 [1]; Brain stem, baseline, averaged across 3 monkeys, mean ± SD): 2.61 ± 0.42 mL/cm^3
VT (GAT-1 [1]; Brain stem, blocking (tiagabine 0.5 mg/kg), 3 monkeys, mean ± SD): 1.45 ± 0.20 mL/cm^3
VT (GAT-1 [1]; Caudate nucleus, baseline, 3 monkeys, mean ± SD): 2.25 ± 0.13 mL/cm^3
VT (GAT-1 [1]; Caudate nucleus, blocking (tiagabine 0.5 mg/kg), 3 monkeys, mean ± SD): 1.27 ± 0.11 mL/cm^3
VT (GAT-1 [1]; Cerebellum, baseline, 3 monkeys, mean ± SD): 3.36 ± 0.39 mL/cm^3
VT (GAT-1 [1]; Cerebellum, blocking (tiagabine 0.5 mg/kg), 3 monkeys, mean ± SD): 1.60 ± 0.13 mL/cm^3
VT (GAT-1 [1]; Cingulate cortex, baseline, 3 monkeys, mean ± SD): 4.30 ± 0.39 mL/cm^3
VT (GAT-1 [1]; Cingulate cortex, blocking (tiagabine 0.5 mg/kg), 3 monkeys, mean ± SD): 2.16 ± 0.18 mL/cm^3
VT (GAT-1 [1]; Frontal cortex, baseline, 3 monkeys, mean ± SD): 3.73 ± 0.46 mL/cm^3
VT (GAT-1 [1]; Frontal cortex, blocking (tiagabine 0.5 mg/kg), 3 monkeys, mean ± SD): 1.79 ± 0.04 mL/cm^3
VT (GAT-1 [1]; Hippocampus, baseline, 3 monkeys, mean ± SD): 2.98 ± 1.10 mL/cm^3
VT (GAT-1 [1]; Hippocampus, blocking (tiagabine 0.5 mg/kg), 3 monkeys, mean ± SD): 1.44 ± 0.07 mL/cm^3
VT (GAT-1 [1]; Insula, baseline, 3 monkeys, mean ± SD): 4.46 ± 0.67 mL/cm^3
VT (GAT-1 [1]; Insula, blocking (tiagabine 0.5 mg/kg), 3 monkeys, mean ± SD): 1.97 ± 0.07 mL/cm^3
VT (GAT-1 [1]; Occipital cortex, baseline, 3 monkeys, mean ± SD): 4.55 ± 0.74 mL/cm^3
VT (GAT-1 [1]; Occipital cortex, blocking (tiagabine 0.5 mg/kg), 3 monkeys, mean ± SD): 2.04 ± 0.11 mL/cm^3
VT (GAT-1 [1]; Putamen, baseline, 3 monkeys, mean ± SD): 2.71 ± 0.05 mL/cm^3
VT (GAT-1 [1]; Putamen, blocking (tiagabine 0.5 mg/kg), 3 monkeys, mean ± SD): 1.44 ± 0.12 mL/cm^3
VT (GAT-1 [1]; Temporal cortex, baseline, 3 monkeys, mean ± SD): 4.48 ± 1.24 mL/cm^3
VT (GAT-1 [1]; Temporal cortex, blocking (tiagabine 0.5 mg/kg), 3 monkeys, mean ± SD): 1.93 ± 0.05 mL/cm^3
VT (GAT-1 [1]; Thalamus, baseline, 3 monkeys, mean ± SD): 1.96 ± 0.10 mL/cm^3
VT (GAT-1 [1]; Thalamus, blocking (tiagabine 0.5 mg/kg), 3 monkeys, mean ± SD): 1.19 ± 0.17 mL/cm^3
Radiotracer clearance time (half-life = ln(2)/k2) (GAT-1 [1]; brain, baseline): 175 ± 42 min
Blood volume fraction (Vb) (GAT-1 [1]; mean ± SD, n = 66 (11 ROIs × 6 scans)): 0.036 ± 0.013 mL/cm^3
Overall spatial correlation (r) of regional distribution with ^11C-flumazenil (GAT-1 [1]; nonhuman primates, P < 0.01, previously acquired ^11C-flumazenil data): 0.87
Free fraction [2]: 13.5 ± 1.4%
BPND (GAT-1 [3]; Average of ROIs, baseline): 2.88 ± 0.59
BPND (GAT-1 [3]; Average of ROIs, blocking): 0.90 ± 0.13
BPND (GAT-1 [3]; Brain stem, baseline, BPND = VT/VND – 1 with averaged VND): 1.98 ± 0.48
BPND (GAT-1 [3]; Brain stem, blocking, BPND = VT/VND – 1 with averaged VND): 0.66 ± 0.23
BPND (GAT-1 [3]; Caudate nucleus, baseline): 1.57 ± 0.15
BPND (GAT-1 [3]; Caudate nucleus, blocking): 0.45 ± 0.12
BPND (GAT-1 [3]; Cerebellum, baseline): 2.84 ± 0.44
BPND (GAT-1 [3]; Cerebellum, blocking): 0.83 ± 0.15
BPND (GAT-1 [3]; Cingulate cortex, baseline): 3.91 ± 0.44
BPND (GAT-1 [3]; Cingulate cortex, blocking): 1.46 ± 0.20
BPND (GAT-1 [3]; Frontal cortex, baseline): 3.26 ± 0.52
BPND (GAT-1 [3]; Frontal cortex, blocking): 1.04 ± 0.04
BPND (GAT-1 [3]; Hippocampus, baseline): 2.40 ± 1.25
BPND (GAT-1 [3]; Hippocampus, blocking): 0.64 ± 0.08
BPND (GAT-1 [3]; Insula, baseline): 4.08 ± 0.76
BPND (GAT-1 [3]; Insula, blocking): 1.25 ± 0.08
BPND (GAT-1 [3]; Occipital cortex, baseline): 4.19 ± 0.84
BPND (GAT-1 [3]; Occipital cortex, blocking): 1.32 ± 0.13
BPND (GAT-1 [3]; Putamen, baseline): 2.09 ± 0.06
BPND (GAT-1 [3]; Putamen, blocking): 0.64 ± 0.14
BPND (GAT-1 [3]; Temporal cortex, baseline): 4.10 ± 1.41
BPND (GAT-1 [3]; Temporal cortex, blocking): 1.20 ± 0.05
BPND (GAT-1 [3]; Thalamus, baseline): 1.24 ± 0.11
BPND (GAT-1 [3]; Thalamus, blocking): 0.36 ± 0.20
VND (GAT-1 [3]; monkey 1): 1.03 mL/cm^3
VND (GAT-1 [3]; monkey 2): 0.96 mL/cm^3
VND (GAT-1 [3]; monkey 3): 0.64 mL/cm^3
VND, mean ± SD across monkeys (GAT-1 [3]; occupancy plots, 3 monkeys, average rSE of 16%): 0.88 ± 0.21 mL/cm^3
Occupancy (GAT-1 [3]; monkey 1): 65%
Occupancy (GAT-1 [3]; monkey 2): 70%
Occupancy (GAT-1 [3]; monkey 3): 71%
Occupancy (overall) (GAT-1 [3]; tiagabine blocking): 69%
Mean percent difference in VT on shortening scan from 180 to 120 min (GAT-1 [4]; hippocampus): 1%
Mean percent difference in VT on shortening scan from 180 to 120 min (GAT-1 [4]; thalamus): −12%
Mean percent difference in VT with respect to the 180-min value (GAT-1 [4]; frontal cortex): −5%
Mean percent difference in VT with respect to the 180-min value (GAT-1 [4]; thalamus): 3%
Parent compound ([5]; 30 min): 88 ± 4%
Parent compound ([5]; 90 min): 83 ± 6%
Structure (SMILES): Cc1ccccc1C(=CCCN1CCCC(C(=O)O)C1)c1ccccc1[18F] (centres unmarked) [^18F-GATT-44]

From PMC12487869, “Toward Imaging of the GABA Transporter Type 1 In Vivo: Quantitative Evaluation of 4 Novel PET Radiotracers in Nonhuman Primates” (Journal of Nuclear Medicine, 2025)
